According to ChEMBL document CHEMBL3044913, “Synthesis, in vitro cytotoxicity, and antibacterial studies of new asymmetric bis-1,2,4-triazoles” (Med Chem Res, 2013):
≈ marks a conversion by molar mass, not a printed value.

Tests used:
[1] = tested on: Pseudomonas aeruginosa; experiment: Antibacterial activity against Pseudomonas aeruginosa ATCC 27853 assessed as diameter of growth inhibition zone at 100 ug/ml after 24 hr by cup-plate method; type: functional; details: ATCC 27853, 24 h, read-out: DIZ
[2] = tested on: Pseudomonas aeruginosa; experiment: Antibacterial activity against Pseudomonas aeruginosa ATCC 27853 assessed as growth inhibition after 24 hr by two-fold serial dilution method; type: functional; details: ATCC 27853, 24 h
[3] = tested on: Bacillus subtilis; experiment: Antibacterial activity against Bacillus subtilis ATCC 6633 assessed as diameter of growth inhibition zone at 100 ug/ml after 24 hr by cup plate method; type: functional; details: ATCC 6633, 24 h, read-out: DIZ
[4] = tested on: Escherichia coli; experiment: Antibacterial activity against Escherichia coli ATCC 25922 assessed as growth inhibition after 24 hr by two-fold serial dilution method; type: functional; details: ATCC 25922, 24 h
[5] = tested on: Staphylococcus aureus; experiment: Antibacterial activity against Staphylococcus aureus ATCC 25923 assessed as diameter of growth inhibition zone at 100 ug/ml after 24 hr by cup-plate method; type: functional; details: ATCC 25923, 24 h, read-out: DIZ
[6] = tested on: Staphylococcus aureus; experiment: Antibacterial activity against Staphylococcus aureus ATCC 25923 assessed as growth inhibition after 24 hr by two-fold serial dilution method; type: functional; details: ATCC 25923, 24 h
[7] = tested on: Escherichia coli; experiment: Antibacterial activity against Escherichia coli ATCC 25922 assessed as diameter of growth inhibition zone at 100 ug/ml after 24 hr by cup-plate method; type: functional; details: ATCC 25922, 24 h, read-out: DIZ
[8] = tested on: Bacillus subtilis; experiment: Antibacterial activity against Bacillus subtilis ATCC 6633 assessed as growth inhibition after 24 hr by two-fold serial dilution method; type: functional; details: ATCC 6633, 24 h
[9] = tested on: Radical scavenging activity; experiment: Antioxidant activity assessed as DPPH radical scavenging activity at 40 ug/ml after 30 min; type: functional
[10] = tested on: HT-29; experiment: Cytotoxicity against Homo sapiens (human) HT-29 cells assessed as inhibition of cell growth after 48 hr by MTT assay; type: functional, cell-based; details: HT-29, 48 h
[11] = Cytotoxicity against Homo sapiens (human) MDA231 cells assessed as inhibition of cell growth after 48 hr by MTT assay; type: functional, cell-based; details: MDA-MB-231, 48 h

Compound: CCOc1ccc(-n2c(S)nnc2CSc2nnc(-c3ccccc3)n2-c2ccccc2)cc1
- zone of inhibition at 100 µg/mL [1]: 5 mm
- MIC [2]: 100 µg/mL (≈ 205 µM)
- zone of inhibition at 100 µg/mL [3]: 5 mm
- MIC [4]: 100 µg/mL (≈ 205 µM)
- zone of inhibition at 100 µg/mL [5]: 5 mm
- MIC [6]: 100 µg/mL (≈ 205 µM)
- zone of inhibition at 100 µg/mL [7]: 5 mm
- MIC [8]: 100 µg/mL (≈ 205 µM)
- Activity [9]: 34%

Compound: CC1(C)S[C@@H]2[C@H](NC(=O)[C@H](N)c3ccccc3)C(=O)N2[C@H]1C(=O)O [AMPICILLIN]
- zone of inhibition at 100 µg/mL [1]: 28 mm
- MIC [2]: < 6.25 µg/mL
- zone of inhibition at 100 µg/mL [3]: 28 mm
- MIC [4]: < 6.25 µg/mL
- zone of inhibition at 100 µg/mL [5]: 28 mm
- MIC [6]: < 6.25 µg/mL
- zone of inhibition at 100 µg/mL [7]: 28 mm
- MIC [8]: < 6.25 µg/mL

Compound: Fc1ccc(-n2c(S)nnc2CSc2nnc(-c3ccccc3)n2-c2ccccc2)cc1
- zone of inhibition at 100 µg/mL [1]: 21 mm
- IC50 [10]: 16.7 µM
- MIC [2]: 12.5 µg/mL (≈ 27.1 µM)
- zone of inhibition at 100 µg/mL [3]: 21 mm
- MIC [4]: 25 µg/mL (≈ 54.3 µM)
- zone of inhibition at 100 µg/mL [5]: 21 mm
- IC50 [11]: 26.8 µM
- MIC [6]: 25 µg/mL (≈ 54.3 µM)
- zone of inhibition at 100 µg/mL [7]: 21 mm
- MIC [8]: 12.5 µg/mL (≈ 27.1 µM)
- Activity [9]: 72%

Compound: CC(C)n1c(S)nnc1CSc1nnc(-c2ccccc2)n1-c1ccccc1
- zone of inhibition at 100 µg/mL [1]: 5 mm
- MIC [2]: 100 µg/mL (≈ 245 µM)
- zone of inhibition at 100 µg/mL [3]: 5 mm
- MIC [4]: 100 µg/mL (≈ 245 µM)
- zone of inhibition at 100 µg/mL [5]: 5 mm
- MIC [6]: 100 µg/mL (≈ 245 µM)
- zone of inhibition at 100 µg/mL [7]: 5 mm
- MIC [8]: 100 µg/mL (≈ 245 µM)
- Activity [9]: 42%

Compound: O=c1[nH]cc(F)c(=O)[nH]1 [FLUOROURACIL]
- IC50 [10]: 3.24 µM
- IC50 [11]: 2.72 µM

Compound: Sc1nnc(CSc2nnc(-c3ccccc3)n2-c2ccccc2)n1-c1ccc(Cl)cc1
- zone of inhibition at 100 µg/mL [1]: 16 mm
- IC50 [10]: 36.6 µM
- MIC [2]: 100 µg/mL (≈ 210 µM)
- zone of inhibition at 100 µg/mL [3]: 16 mm
- MIC [4]: 50 µg/mL (≈ 105 µM)
- zone of inhibition at 100 µg/mL [5]: 16 mm
- IC50 [11]: 50.3 µM
- MIC [6]: 50 µg/mL (≈ 105 µM)
- zone of inhibition at 100 µg/mL [7]: 16 mm
- MIC [8]: 25 µg/mL (≈ 52.4 µM)
- Activity [9]: 65%

Compound: O=C1O[C@H]([C@@H](O)CO)C(O)=C1O
- Activity [9]: 94%

Compound: CCOc1ccc(-n2c(S)nnc2Sc2nnc(-c3ccccc3)n2-c2ccccc2)cc1
- zone of inhibition at 100 µg/mL [1]: 5 mm
- IC50 [10]: 46.8 µM
- MIC [2]: 100 µg/mL (≈ 212 µM)
- zone of inhibition at 100 µg/mL [3]: 5 mm
- MIC [4]: 100 µg/mL (≈ 212 µM)
- zone of inhibition at 100 µg/mL [5]: 5 mm
- IC50 [11]: 43.9 µM
- MIC [6]: 100 µg/mL (≈ 212 µM)
- zone of inhibition at 100 µg/mL [7]: 5 mm
- MIC [8]: 100 µg/mL (≈ 212 µM)
- Activity [9]: 59%

Compound: COc1ccc(-n2c(S)nnc2Sc2nnc(-c3ccccc3)n2-c2ccccc2)cc1
- zone of inhibition at 100 µg/mL [1]: 5 mm
- MIC [2]: 100 µg/mL (≈ 218 µM)
- zone of inhibition at 100 µg/mL [3]: 5 mm
- MIC [4]: 100 µg/mL (≈ 218 µM)
- zone of inhibition at 100 µg/mL [5]: 5 mm
- MIC [6]: 100 µg/mL (≈ 218 µM)
- zone of inhibition at 100 µg/mL [7]: 5 mm
- MIC [8]: 100 µg/mL (≈ 218 µM)
- Activity [9]: 28%

Compound: Sc1nnc(Sc2nnc(-c3ccccc3)n2-c2ccccc2)n1-c1ccc(Cl)cc1
- zone of inhibition at 100 µg/mL [1]: 16 mm
- IC50 [10]: 38.4 µM
- MIC [2]: 25 µg/mL (≈ 54 µM)
- zone of inhibition at 100 µg/mL [3]: 16 mm
- MIC [4]: 12.5 µg/mL (≈ 27 µM)
- zone of inhibition at 100 µg/mL [5]: 16 mm
- IC50 [11]: 49.7 µM
- MIC [6]: 12.5 µg/mL (≈ 27 µM)
- zone of inhibition at 100 µg/mL [7]: 16 mm
- MIC [8]: 25 µg/mL (≈ 54 µM)
- Activity [9]: 64%

Compound: Fc1ccc(-n2c(S)nnc2Sc2nnc(-c3ccccc3)n2-c2ccccc2)cc1
- zone of inhibition at 100 µg/mL [1]: 16 mm
- IC50 [10]: 32.8 µM
- MIC [2]: 50 µg/mL (≈ 112 µM)
- zone of inhibition at 100 µg/mL [3]: 16 mm
- MIC [4]: 50 µg/mL (≈ 112 µM)
- zone of inhibition at 100 µg/mL [5]: 16 mm
- IC50 [11]: 29.7 µM
- MIC [6]: 25 µg/mL (≈ 56 µM)
- zone of inhibition at 100 µg/mL [7]: 16 mm
- MIC [8]: 25 µg/mL (≈ 56 µM)
- Activity [9]: 60%

Compound: COc1ccc(-n2c(S)nnc2CSc2nnc(-c3ccccc3)n2-c2ccccc2)cc1
- zone of inhibition at 100 µg/mL [1]: 21 mm
- IC50 [10]: 27.7 µM
- MIC [2]: 100 µg/mL (≈ 212 µM)
- zone of inhibition at 100 µg/mL [3]: 21 mm
- MIC [4]: 50 µg/mL (≈ 106 µM)
- zone of inhibition at 100 µg/mL [5]: 21 mm
- IC50 [11]: 29.2 µM
- MIC [6]: 25 µg/mL (≈ 52.9 µM)
- zone of inhibition at 100 µg/mL [7]: 21 mm
- MIC [8]: 50 µg/mL (≈ 106 µM)
- Activity [9]: 63%

Compound: Sc1nnc(Sc2nnc(-c3ccccc3)n2-c2ccccc2)n1-c1ccccc1
- zone of inhibition at 100 µg/mL [1]: 5 mm
- IC50 [10]: 28.3 µM
- MIC [2]: 100 µg/mL (≈ 233 µM)
- zone of inhibition at 100 µg/mL [3]: 5 mm
- MIC [4]: 100 µg/mL (≈ 233 µM)
- zone of inhibition at 100 µg/mL [5]: 5 mm
- IC50 [11]: 34.6 µM
- MIC [6]: 100 µg/mL (≈ 233 µM)
- zone of inhibition at 100 µg/mL [7]: 5 mm
- MIC [8]: 100 µg/mL (≈ 233 µM)
- Activity [9]: 63%

Compound: Sc1nnc(CSc2nnc(-c3ccccc3)n2-c2ccccc2)n1-c1ccccc1
- zone of inhibition at 100 µg/mL [1]: 16 mm
- IC50 [10]: 5.49 µM
- MIC [2]: 50 µg/mL (≈ 113 µM)
- zone of inhibition at 100 µg/mL [3]: 16 mm
- MIC [4]: 25 µg/mL (≈ 56.5 µM)
- zone of inhibition at 100 µg/mL [5]: 16 mm
- IC50 [11]: 8.57 µM
- MIC [6]: 12.5 µg/mL (≈ 28.2 µM)
- zone of inhibition at 100 µg/mL [7]: 16 mm
- MIC [8]: 12.5 µg/mL (≈ 28.2 µM)
- Activity [9]: 85%

Compound: CC(C)n1c(S)nnc1Sc1nnc(-c2ccccc2)n1-c1ccccc1
- zone of inhibition at 100 µg/mL [1]: 5 mm
- MIC [2]: 100 µg/mL (≈ 253 µM)
- zone of inhibition at 100 µg/mL [3]: 5 mm
- MIC [4]: 100 µg/mL (≈ 253 µM)
- zone of inhibition at 100 µg/mL [5]: 5 mm
- MIC [6]: 100 µg/mL (≈ 253 µM)
- zone of inhibition at 100 µg/mL [7]: 5 mm
- MIC [8]: 100 µg/mL (≈ 253 µM)
- Activity [9]: 39%
